#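 Exposure lasted 48 hours, with cells grown in 96-well plates and compounds tested at five concentrations. GI50 = concentration required for 50% inhibition of growth. At the TGI there is no net growth.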
# Columns and labels:
# Assay in all cases: inhibition of tumour cell growth, NCI panel, 48 h
# [1] = system: 786-0 renal
# [2] = system: SR leukemia
# [3] = system: UO-31 renal
# [4] = system: COLO 205 colon
# [5] = system: PC-3 prostate
# [6] = system: SW-620 colon
# [7] = system: IGROV1 ovarian
# [8] = system: NCI-H23 lung
# [9] = system: HOP-92 NSCLC
# [10] = system: RXF 393 renal
# [11] = system: UACC-62 melanoma
# [12] = system: NCI-H460 lung
# [13] = system: RPMI-8226 leukemia
# [14] = system: CCRF-CEM leukemia
# [15] = system: A549 NSCLC
# [16] = system: SK-OV-3 ovarian
# [17] = system: SNB-19 CNS
# [18] = system: KM12 colon
# [19] = system: HL-60(TB) leukemia
# [20] = system: MOLT-4 leukemia
# [21] = system: MDA-MB-231 breast
# [22] = system: LOX IMVI melanoma
# [23] = system: NCI-H522 lung
# [24] = system: BT-549 breast
# [25] = system: SK-MEL-28 melanoma
# [26] = system: OVCAR-3 ovarian
# [27] = system: HS 578T breast
# [28] = system: DU-145 prostate
# [29] = system: NCI/ADR-RES ovarian
# [30] = system: U251 CNS
# [31] = system: A498 renal
# [32] = system: EKVX NSCLC
# [33] = system: HT29 colon
# [34] = system: NCI-H226 lung
# [35] = system: MALME-3M melanoma
# [36] = system: CAKI-1 renal
# [37] = system: HCT-15 colon
# [38] = system: SK-MEL-2 melanoma
# [39] = system: OVCAR-4 ovarian
# [40] = system: K-562 leukemia
# [41] = system: SK-MEL-5 melanoma
# [42] = system: SNB-75 CNS
# [43] = system: HCC-2998 colon
# [44] = system: HOP-62 NSCLC
# [45] = system: MDA-MB-435
# [46] = system: UACC-257 melanoma
# [47] = system: SF-539 CNS
# [48] = system: SF-295 CNS
# [49] = system: SF-268 CNS
# [50] = system: SN12C renal
# [51] = system: T-47D breast
# [52] = system: MCF7 breast
# [53] = system: OVCAR-5 ovarian
# [54] = system: HCT-116 colon
# [55] = system: ACHN renal
# [56] = system: TK-10 renal
structure (smiles),measurement,setting,value
CN(C)S(=O)(=O)c1ccc(NC(=O)COC(=O)c2ccc(S(=O)(=O)N3CCCCC3)cc2)cc1,GI50,[1],> 100 µM
same,TGI,[1],> 100 µM
same,GI50,[2],> 100 µM
same,TGI,[2],> 100 µM
same,GI50,[3],> 100 µM
same,TGI,[3],> 100 µM
same,GI50,[4],> 100 µM
same,TGI,[4],> 100 µM
same,GI50,[5],> 100 µM
same,TGI,[5],> 100 µM
same,GI50,[6],> 100 µM
same,TGI,[6],> 100 µM
same,GI50,[7],> 100 µM
same,TGI,[7],> 100 µM
same,GI50,[8],> 100 µM
same,TGI,[8],> 100 µM
same,GI50,[9],> 100 µM
same,TGI,[9],> 100 µM
same,GI50,[10],> 100 µM
same,TGI,[10],> 100 µM
same,GI50,[11],> 100 µM
same,TGI,[11],> 100 µM
same,GI50,[12],> 100 µM
same,TGI,[12],> 100 µM
same,GI50,[13],> 100 µM
same,TGI,[13],> 100 µM
same,GI50,[14],> 100 µM
same,TGI,[14],> 100 µM
same,GI50,[15],> 100 µM
same,TGI,[15],> 100 µM
same,GI50,[16],> 100 µM
same,TGI,[16],> 100 µM
same,GI50,[17],> 100 µM
same,TGI,[17],> 100 µM
same,GI50,[18],> 100 µM
same,TGI,[18],> 100 µM
same,GI50,[19],> 100 µM
same,TGI,[19],> 100 µM
same,GI50,[20],> 100 µM
same,TGI,[20],> 100 µM
same,GI50,[21],> 100 µM
same,TGI,[21],> 100 µM
same,GI50,[22],> 100 µM
same,TGI,[22],> 100 µM
same,GI50,[23],> 100 µM
same,TGI,[23],> 100 µM
same,GI50,[24],> 100 µM
same,TGI,[24],> 100 µM
same,GI50,[25],> 100 µM
same,TGI,[25],> 100 µM
same,GI50,[26],> 100 µM
same,TGI,[26],> 100 µM
same,GI50,[27],> 100 µM
same,TGI,[27],> 100 µM
same,GI50,[28],> 100 µM
same,TGI,[28],> 100 µM
same,GI50,[29],> 100 µM
same,TGI,[29],> 100 µM
same,GI50,[30],> 100 µM
same,TGI,[30],> 100 µM
same,GI50,[31],> 100 µM
same,TGI,[31],> 100 µM
same,GI50,[32],> 100 µM
same,TGI,[32],> 100 µM
same,GI50,[33],> 100 µM
same,TGI,[33],> 100 µM
same,GI50,[34],> 100 µM
same,TGI,[34],> 100 µM
same,GI50,[35],> 100 µM
same,TGI,[35],> 100 µM
same,GI50,[36],> 100 µM
same,TGI,[36],> 100 µM
same,GI50,[37],> 100 µM
same,TGI,[37],> 100 µM
same,GI50,[38],> 100 µM
same,TGI,[38],> 100 µM
same,GI50,[39],> 100 µM
same,TGI,[39],> 100 µM
same,GI50,[40],> 100 µM
same,TGI,[40],> 100 µM
same,GI50,[41],> 100 µM
same,TGI,[41],> 100 µM
same,GI50,[42],> 100 µM
same,TGI,[42],> 100 µM
same,GI50,[43],> 100 µM
same,TGI,[43],> 100 µM
same,GI50,[44],> 100 µM
same,TGI,[44],> 100 µM
same,GI50,[45],> 100 µM
same,TGI,[45],> 100 µM
same,GI50,[46],> 100 µM
same,TGI,[46],> 100 µM
same,GI50,[47],> 100 µM
same,TGI,[47],> 100 µM
same,GI50,[48],> 100 µM
same,TGI,[48],> 100 µM
same,GI50,[49],> 100 µM
same,TGI,[49],> 100 µM
same,GI50,[50],> 100 µM
same,TGI,[50],> 100 µM
same,GI50,[51],> 100 µM
same,TGI,[51],> 100 µM
same,GI50,[52],> 100 µM
same,TGI,[52],> 100 µM
same,GI50,[53],> 100 µM
same,TGI,[53],> 100 µM
same,GI50,[54],> 100 µM
same,TGI,[54],> 100 µM
same,GI50,[55],> 100 µM
same,TGI,[55],> 100 µM
same,GI50,[56],> 100 µM
same,TGI,[56],> 100 µM

# Source: PubChem BioAssay (NCI)
